Assay: Stability of cannabinoid compounds and Vitamin E components in Beverage 2 (AB Red) by LCMSMS
Format: physicochemical

## C=C(C)[C@@H]1CCC(C)=C[C@H]1c1c(O)cc(CCCCC)c(C(=O)O)c1O [CBDA, cannabidiolic acid]
Stored at 8° C., 0 days
  Stability of Plant-Derived Cannabinoid Compounds in AB Red: 1.68 µg/mL
Stored at 8° C., 1 days
  Stability of Plant-Derived Cannabinoid Compounds in AB Red: 1.69 µg/mL
Stored at 8° C., 2 days
  Stability of Plant-Derived Cannabinoid Compounds in AB Red: 1.66 µg/mL
Stored at 8° C., 3 days
  Stability of Plant-Derived Cannabinoid Compounds in AB Red: 1.64 µg/mL
Stored at 8° C., 5 days
  Stability of Plant-Derived Cannabinoid Compounds in AB Red: 1.67 µg/mL
Stored at 8° C., 8 days
  Stability of Plant-Derived Cannabinoid Compounds in AB Red: 1.68 µg/mL
Stored at 8° C., 9 days
  Stability of Plant-Derived Cannabinoid Compounds in AB Red: 1.65 µg/mL
Stored at 8° C., 10 days
  Stability of Plant-Derived Cannabinoid Compounds in AB Red: 1.67 µg/mL
Stored at 8° C., 11 days
  Stability of Plant-Derived Cannabinoid Compounds in AB Red: 1.65 µg/mL
Stored at 8° C., 12 days
  Stability of Plant-Derived Cannabinoid Compounds in AB Red: 1.68 µg/mL
Stored at 8° C., 15 days
  Stability of Plant-Derived Cannabinoid Compounds in AB Red: 1.67 µg/mL
Stored at 8° C., 16 days
  Stability of Plant-Derived Cannabinoid Compounds in AB Red: 1.69 µg/mL
Stored at 8° C., 17 days
  Stability of Plant-Derived Cannabinoid Compounds in AB Red: 1.64 µg/mL
Stored at 8° C., 18 days
  Stability of Plant-Derived Cannabinoid Compounds in AB Red: 1.65 µg/mL
Stored at 8° C., 19 days
  Stability of Plant-Derived Cannabinoid Compounds in AB Red: 1.68 µg/mL
Stored at 8° C., 22 days
  Stability of Plant-Derived Cannabinoid Compounds in AB Red: 1.70 µg/mL
Stored at 8° C., 23 days
  Stability of Plant-Derived Cannabinoid Compounds in AB Red: 1.63 µg/mL
Stored at 8° C., 24 days
  Stability of Plant-Derived Cannabinoid Compounds in AB Red: 1.70 µg/mL
Stored at 8° C., 25 days
  Stability of Plant-Derived Cannabinoid Compounds in AB Red: 1.63 µg/mL
Stored at 8° C., 26 days
  Stability of Plant-Derived Cannabinoid Compounds in AB Red: 1.63 µg/mL
Stored at 8° C., 29 days
  Stability of Plant-Derived Cannabinoid Compounds in AB Red: 1.66 µg/mL
Stored at 8° C., 30 days
  Stability of Plant-Derived Cannabinoid Compounds in AB Red: 1.70 µg/mL
Stored at 8° C., 60 days
  Stability of Plant-Derived Cannabinoid Compounds in AB Red: 1.66 µg/mL
Stored at 8° C., 90 days
  Stability of Plant-Derived Cannabinoid Compounds in AB Red: 1.68 µg/mL
Stored at 8° C., 120 days
  Stability of Plant-Derived Cannabinoid Compounds in AB Red: 1.65 µg/mL
Stored at 8° C., 150 days
  Stability of Plant-Derived Cannabinoid Compounds in AB Red: 1.66 µg/mL
Stored at 8° C., 180 days
  Stability of Plant-Derived Cannabinoid Compounds in AB Red: 1.60 µg/mL
Stored at 8° C., 210 days
  Stability of Plant-Derived Cannabinoid Compounds in AB Red: 1.65 µg/mL
Stored at 8° C., 240 days
  Stability of Plant-Derived Cannabinoid Compounds in AB Red: 1.66 µg/mL
Stored at 8° C., 270 days
  Stability of Plant-Derived Cannabinoid Compounds in AB Red: 1.63 µg/mL
Stored at 8° C., 300 days
  Stability of Plant-Derived Cannabinoid Compounds in AB Red: 1.65 µg/mL
Stored at 8° C., 330 days
  Stability of Plant-Derived Cannabinoid Compounds in AB Red: 1.60 µg/mL
Stored at 8° C., 360 days
  Stability of Plant-Derived Cannabinoid Compounds in AB Red: 1.62 µg/mL
Stored at 8° C., 390 days
  Stability of Plant-Derived Cannabinoid Compounds in AB Red: 1.63 µg/mL
Stored at 8° C., 420 days
  Stability of Plant-Derived Cannabinoid Compounds in AB Red: 1.63 µg/mL
Stored at 8° C., 450 days
  Stability of Plant-Derived Cannabinoid Compounds in AB Red: 1.63 µg/mL
Stored at 8° C., 480 days
  Stability of Plant-Derived Cannabinoid Compounds in AB Red: 1.60 µg/mL
Stored at 8° C., 510 days
  Stability of Plant-Derived Cannabinoid Compounds in AB Red: 1.55 µg/mL
Stored at 8° C., 540 days
  Stability of Plant-Derived Cannabinoid Compounds in AB Red: 1.55 µg/mL
Stored at 8° C., 570 days
  Stability of Plant-Derived Cannabinoid Compounds in AB Red: 1.54 µg/mL
Stored at 21-25° C., 0 days
  Stability of Plant-Derived Cannabinoid Compounds in AB Red: 1.68 µg/mL
Stored at 21-25° C., 1 days
  Stability of Plant-Derived Cannabinoid Compounds in AB Red: 1.70 µg/mL
Stored at 21-25° C., 2 days
  Stability of Plant-Derived Cannabinoid Compounds in AB Red: 1.65 µg/mL
Stored at 21-25° C., 3 days
  Stability of Plant-Derived Cannabinoid Compounds in AB Red: 1.64 µg/mL
Stored at 21-25° C., 5 days
  Stability of Plant-Derived Cannabinoid Compounds in AB Red: 1.69 µg/mL
Stored at 21-25° C., 8 days
  Stability of Plant-Derived Cannabinoid Compounds in AB Red: 1.64 µg/mL
Stored at 21-25° C., 9 days
  Stability of Plant-Derived Cannabinoid Compounds in AB Red: 1.63 µg/mL
Stored at 21-25° C., 10 days
  Stability of Plant-Derived Cannabinoid Compounds in AB Red: 1.61 µg/mL
Stored at 21-25° C., 11 days
  Stability of Plant-Derived Cannabinoid Compounds in AB Red: 1.64 µg/mL
Stored at 21-25° C., 12 days
  Stability of Plant-Derived Cannabinoid Compounds in AB Red: 1.70 µg/mL
Stored at 21-25° C., 15 days
  Stability of Plant-Derived Cannabinoid Compounds in AB Red: 1.64 µg/mL
Stored at 21-25° C., 16 days
  Stability of Plant-Derived Cannabinoid Compounds in AB Red: 1.67 µg/mL
Stored at 21-25° C., 17 days
  Stability of Plant-Derived Cannabinoid Compounds in AB Red: 1.63 µg/mL
Stored at 21-25° C., 18 days
  Stability of Plant-Derived Cannabinoid Compounds in AB Red: 1.65 µg/mL
Stored at 21-25° C., 19 days
  Stability of Plant-Derived Cannabinoid Compounds in AB Red: 1.70 µg/mL
Stored at 21-25° C., 22 days
  Stability of Plant-Derived Cannabinoid Compounds in AB Red: 1.66 µg/mL
Stored at 21-25° C., 23 days
  Stability of Plant-Derived Cannabinoid Compounds in AB Red: 1.63 µg/mL
Stored at 21-25° C., 24 days
  Stability of Plant-Derived Cannabinoid Compounds in AB Red: 1.65 µg/mL
Stored at 21-25° C., 25 days
  Stability of Plant-Derived Cannabinoid Compounds in AB Red: 1.64 µg/mL
Stored at 21-25° C., 26 days
  Stability of Plant-Derived Cannabinoid Compounds in AB Red: 1.67 µg/mL
Stored at 21-25° C., 29 days
  Stability of Plant-Derived Cannabinoid Compounds in AB Red: 1.62 µg/mL
Stored at 21-25° C., 30 days
  Stability of Plant-Derived Cannabinoid Compounds in AB Red: 1.68 µg/mL
Stored at 21-25° C., 60 days
  Stability of Plant-Derived Cannabinoid Compounds in AB Red: 1.59 µg/mL
Stored at 21-25° C., 90 days
  Stability of Plant-Derived Cannabinoid Compounds in AB Red: 1.60 µg/mL
Stored at 21-25° C., 120 days
  Stability of Plant-Derived Cannabinoid Compounds in AB Red: 1.64 µg/mL
Stored at 21-25° C., 150 days
  Stability of Plant-Derived Cannabinoid Compounds in AB Red: 1.58 µg/mL
Stored at 21-25° C., 180 days
  Stability of Plant-Derived Cannabinoid Compounds in AB Red: 1.64 µg/mL
Stored at 21-25° C., 210 days
  Stability of Plant-Derived Cannabinoid Compounds in AB Red: 1.64 µg/mL
Stored at 21-25° C., 240 days
  Stability of Plant-Derived Cannabinoid Compounds in AB Red: 1.60 µg/mL
Stored at 21-25° C., 270 days
  Stability of Plant-Derived Cannabinoid Compounds in AB Red: 1.65 µg/mL
Stored at 21-25° C., 300 days
  Stability of Plant-Derived Cannabinoid Compounds in AB Red: 1.58 µg/mL
Stored at 21-25° C., 330 days
  Stability of Plant-Derived Cannabinoid Compounds in AB Red: 1.65 µg/mL
Stored at 21-25° C., 360 days
  Stability of Plant-Derived Cannabinoid Compounds in AB Red: 1.58 µg/mL
Stored at 21-25° C., 390 days
  Stability of Plant-Derived Cannabinoid Compounds in AB Red: 1.61 µg/mL
Stored at 21-25° C., 420 days
  Stability of Plant-Derived Cannabinoid Compounds in AB Red: 1.59 µg/mL
Stored at 21-25° C., 450 days
  Stability of Plant-Derived Cannabinoid Compounds in AB Red: 1.57 µg/mL
Stored at 21-25° C., 480 days
  Stability of Plant-Derived Cannabinoid Compounds in AB Red: 1.57 µg/mL
Stored at 21-25° C., 510 days
  Stability of Plant-Derived Cannabinoid Compounds in AB Red: 1.56 µg/mL
Stored at 21-25° C., 540 days
  Stability of Plant-Derived Cannabinoid Compounds in AB Red: 1.57 µg/mL
Stored at 21-25° C., 570 days
  Stability of Plant-Derived Cannabinoid Compounds in AB Red: 1.54 µg/mL

— US20260130395A1, “Water Dispersible Botanical Compositions” (Aquila Black Limited, priority 2021, published 2026)
